Laboratory results taken from BindingDB's records for patent WO2022112919 (Pfizer, 2022).

Key:
[1] = molecular target: T1, Transthyretin (Homo sapiens, UniProt P02766); test: Binding of Examples to Transthyretin - EC50 Determination
Procedure: TTR SPA binding assays were performed in a final volume of 60 mI containing 100 ng human TTR (biotinylated recombinant protein) coupled to 25 pg SPA beads (streptavidin coated, Perkin Elmer, RPNQ0007) and 50 nM [3H] tafamidis (Moravek, MT-1003033), plus varying concentrations of test compound or vehicle. Briefly, assays were prepared at room temperature in 384-well plates (Corning, 3767) containing 200 nl_ of test compound in DMSO (or DMSO as vehicle). The plates also contained wells with a saturating concentration of unlabeled ligand (200 nl_ of 3 mM tafamidis or 3 mM thyroxine in DMSO) for measuring non-specific binding. Assays were initiated by addition of 20 mI of […] TTR protein in assay buffer (10 mM Tris pH 7.5, 150 mM NaCI, 0.25% Triton X-100) and 20 mI_ of 150 nM [3H] tafamidis in assay buffer. The plates were incubated 1 hour prior to addition of 20 mI_ of 1.25 mg/ml_ SPA beads diluted in assay buffer. The assays were incubated an additional 10 hours to allow binding to reach equilibrium and the amount of receptor-ligand complex was determined by liquid scintillation counting using a 1450 Microbeta Trilux (Wallac). The % effect values for test wells were calculated based on the total binding (vehicle, 0% effect) and non-specific binding (unlabeled ligand, 100% effect) wells on each assay plate. ECso values were then determined using a standard 4 parameter logistic dose response equation.

[2] = molecular target: T1, Transthyretin; test: KD Determination by SPR
Procedure: Affinity and Reversibility -The binding affinity and kinetics of binding were measured using Surface Plasmon Resonance based binding assay. These experiments were carried out on Bruker SPR MASS-1 and MASS-2 instruments. There was no significant difference in results obtained on both these instruments. Bap-tagged TTR protein was captured on a Streptavidin coated sensor chip to achieve about 2000 to 3000 RUs of surface density. All the samples were prepared in buffer consisting of 10 mM Sodium Phosphate, pH 7.6, 100 mM KCI, 0.005% Tween-20 and 2% DMSO. The same buffer was used as the running buffer during the experiments. Compound samples were injected at a flow rate of 30 pL/min for 90 seconds of association time followed by at least 240 seconds of dissociation period. The compounds were tested in a concentration series consisting of at least 6 samples (usually 10) made with 5-fold, 3-fold, or 2-fold dilution. The highest concentration was […] or selected based on compound binding affinity observed in a previous experiment. […] The data were processed and analyzed using Bruker Analyzer and Scrubber to calculate binding affinities by fitting the data to 1:1 binding model. […] Tafamidis binds to TTR in a reversible manner with calculated residence time of around 40 seconds.

SMILES	EC50 [1] [µM]	Kd [2] [µM]
Cc1[nH]nc(C#N)c1-c1ccc(C)c2scnc12 [WO2022112919, Example 8]	0.02	–
Cc1n[nH]c(C)c1-c1cc(F)cc2scnc12 [WO2022112919, Example 15]	0.021	–
COc1cc(-c2c(C)n[nH]c2C)c2ncsc2c1 [WO2022112919, Example 14]	0.025	–
Cc1n[nH]c(C)c1-c1cccc2ncsc12 [WO2022112919, Example 2]	0.014	0.017
Cc1n[nH]c(C)c1-c1ccnc2scnc12 [WO2022112919, Example 19]	–	0.039

Further compounds by falling EC50 [1], results first:

EC50 [1] [µM]	Kd [2] [µM]	SMILES
0.036	–	Cc1[nH]nc(C#N)c1-c1ccc(C(F)(F)F)c2scnc12 [WO2022112919, Example 9]
0.021	–	Cc1cc(-c2c(C)n[nH]c2C)c2ncsc2c1 [WO2022112919, Example 13]
